# In paper PMC10466331, “Fluorescence polarisation activity-based protein profiling for the identification of deoxynojirimycin-type inhibitors selective for lysosomal retaining alpha- and beta-glucosidases” (Chemical Science, 2023):
# Tested on: retaining β-glucosidases GBA1, GBA2 and GBA3
# Experiment: SDS-gel activity-based protein profiling (in-gel fluorescence labelling)
# Assay type: biochemical
# Details: 500 nM probe, 30 min 37 °C
# Method: Lysates of HEK293T GBA2 overexpressing and HEK293T GBA3 overexpressing cells[24] were prepared in 150 mM McIlvain buffer (pH = 5.0), supplemented with 0.25 M sucrose, 0.2% sodium taurocholate (w/v) and 0.1% Triton X-100 (v/v). The lysates were homogenized using sonication, after which the total protein concentration was determined via Pierce BCA Protein assay (ThermoFisher) using BSA (ThermoFisher) for standards. Samples (Vf = 20 μL) of an 1 : 1 mixture of GBA2 : GBA3 lysates containing 40 μg protein were incubated for 30 min at 37 °C with 500 nM ABP. Protein content was denatured using Laemmli Buffer (4×) at 98 °C for 5 min. Reactions were resolved by 7.5% SDS-PAGE electrophoresis and wet slabs were scanned for fluorescence (Typhoon FLA 9500, GE Healthcare).
structure (smiles),measurement,value
COC(=O)c1cc(C(=O)NCCCCc2cn(C[C@@H]3[C@@H](O)[C@H](O)[C@@H](O)[C@@H]4O[C@H]34)nn2)ccc1-c1c2ccc(=[N+](C)C)cc-2oc2cc(N(C)C)ccc12 [ABP I],β-glucosidase labelling selectivity of the probe,modifies exclusively GBA1
